Source: ChEMBL document CHEMBL1201862, “PubChem BioAssay data set” (2004)
Active and inactive are the calls of the source.

Assays:
[1] = inhibitors of firefly luciferase expression or activity, dose response, H4 neuroglioma cells, luminescence (AID 1990); type: functional, cell-based
[2] = biological target: Beta-galactosidase (Escherichia coli, UniProt Q8VNN2); assay: PubChem AID 485352; type: functional
[3] = biological target: Large T antigen (Simian virus 40, UniProt P03070); type: functional, Betapolyomavirus macacae;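 note: Confirmatory-stage PubChem screen for compounds that inhibit SV40 T antigen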
Chain of Large T antigen (P03070 whole entry): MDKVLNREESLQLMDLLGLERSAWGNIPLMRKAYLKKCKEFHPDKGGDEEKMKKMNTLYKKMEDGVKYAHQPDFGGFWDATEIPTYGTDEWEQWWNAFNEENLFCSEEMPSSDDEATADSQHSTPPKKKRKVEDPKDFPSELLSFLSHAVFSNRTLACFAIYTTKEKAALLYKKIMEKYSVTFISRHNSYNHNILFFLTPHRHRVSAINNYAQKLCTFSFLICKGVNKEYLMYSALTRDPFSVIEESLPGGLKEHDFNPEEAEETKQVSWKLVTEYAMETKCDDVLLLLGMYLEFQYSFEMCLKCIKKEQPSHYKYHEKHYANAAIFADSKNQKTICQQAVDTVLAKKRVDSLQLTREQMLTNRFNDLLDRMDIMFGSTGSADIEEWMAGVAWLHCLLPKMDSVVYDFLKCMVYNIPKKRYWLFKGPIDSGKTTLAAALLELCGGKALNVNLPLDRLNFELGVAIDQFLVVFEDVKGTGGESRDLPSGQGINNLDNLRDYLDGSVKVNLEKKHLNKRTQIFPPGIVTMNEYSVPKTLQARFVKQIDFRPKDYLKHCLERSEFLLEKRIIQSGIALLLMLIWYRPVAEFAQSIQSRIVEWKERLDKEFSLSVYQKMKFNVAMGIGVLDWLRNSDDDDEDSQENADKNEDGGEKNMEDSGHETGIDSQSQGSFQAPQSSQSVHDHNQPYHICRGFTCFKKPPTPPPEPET

[4] = Shn3 3'UTR reporter inhibitors, dose response, cell-based, Clone20 osteoblasts, firefly luciferase, cherry-picked (AID 624132); type: functional;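 note: firefly luciferase luminescence from reporter carrying the Shn3 3'UTR in osteoblasts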
[5] = HepG2 cell cytotoxicity, dose response, cytotoxicity control for Shn3 inhibitor project, CellTiter-Glo, cherry-picked (AID 624134); type: functional, cell-based
[6] = control 3'UTR Renilla luciferase suppression, dose response, counter-screen for Shn3 inhibitor project, cell-based, Clone20-Shn3RL, cherry-picked (AID 624133); type: functional
[7] = nonselective inhibitors of cellular cAMP signaling, dose response, counter-screen for MC4R biased antagonist project, cell-based, TR-FRET cAMP detection (AID 602305); type: functional;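 note: U2OS cells stimulated with forskolin near its EC80 as the cAMP inducer; potency is for inhibition of forskolin-stimulated cAMP signaling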
[8] = biological target: Paired box protein Pax-8 (Homo sapiens, UniProt Q06710); assay: inhibitors of PAX8-driven TPO luciferase reporter, dose response, RMG-I cells, cherry-pick (AID 687027); type: functional, cell-based;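 note: luciferase reporter driven by Pax8 target thyroperoxidase promoter measured by SteadyGlo luminescence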
Chain of Paired box protein Pax-8 (Q06710 whole entry): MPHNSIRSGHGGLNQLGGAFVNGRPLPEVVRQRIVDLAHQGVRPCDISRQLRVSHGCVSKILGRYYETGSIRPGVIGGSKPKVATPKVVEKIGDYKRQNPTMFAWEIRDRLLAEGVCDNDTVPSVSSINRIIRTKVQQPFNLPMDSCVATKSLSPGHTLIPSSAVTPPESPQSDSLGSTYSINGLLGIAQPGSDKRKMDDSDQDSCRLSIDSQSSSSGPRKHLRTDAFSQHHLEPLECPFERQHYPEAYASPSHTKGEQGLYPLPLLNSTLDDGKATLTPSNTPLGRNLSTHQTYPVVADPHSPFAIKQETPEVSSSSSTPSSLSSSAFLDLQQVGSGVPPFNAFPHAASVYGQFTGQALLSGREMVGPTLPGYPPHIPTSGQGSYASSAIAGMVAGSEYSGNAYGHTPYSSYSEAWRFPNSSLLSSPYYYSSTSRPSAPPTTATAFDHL

[9] = biological target: T1, Zinc finger protein mex-5 (Caenorhabditis elegans, UniProt Q9XUB2); assay: MEX-5/TCR-2 RNA interaction inhibitors, dose response, biochemical, C. elegans, fluorescence polarization (AID 1960)
T1 sequence (Q9XUB2 whole entry): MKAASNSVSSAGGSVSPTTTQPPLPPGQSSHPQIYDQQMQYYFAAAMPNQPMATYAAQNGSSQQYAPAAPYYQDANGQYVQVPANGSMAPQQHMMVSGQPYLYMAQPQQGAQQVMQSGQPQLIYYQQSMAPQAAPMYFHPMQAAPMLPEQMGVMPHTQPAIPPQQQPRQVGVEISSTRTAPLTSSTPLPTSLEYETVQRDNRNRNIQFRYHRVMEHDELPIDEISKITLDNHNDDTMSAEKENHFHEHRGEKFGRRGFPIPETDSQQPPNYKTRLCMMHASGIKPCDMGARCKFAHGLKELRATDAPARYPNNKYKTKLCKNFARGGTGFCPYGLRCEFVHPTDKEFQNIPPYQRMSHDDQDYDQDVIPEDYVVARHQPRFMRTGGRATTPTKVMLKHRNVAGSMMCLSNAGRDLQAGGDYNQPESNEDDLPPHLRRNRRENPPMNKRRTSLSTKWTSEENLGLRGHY

[10] = microbe, parasite or virus in culture; type: functional; details: Mycobacterium tuberculosis
[11] = biological target: Nonstructural protein 1 (Influenza A virus, UniProt Q194T2); type: functional, Influenza A virus (A/California/07/2009(H1N1))
Chain of Nonstructural protein 1 (Q194T2 whole entry): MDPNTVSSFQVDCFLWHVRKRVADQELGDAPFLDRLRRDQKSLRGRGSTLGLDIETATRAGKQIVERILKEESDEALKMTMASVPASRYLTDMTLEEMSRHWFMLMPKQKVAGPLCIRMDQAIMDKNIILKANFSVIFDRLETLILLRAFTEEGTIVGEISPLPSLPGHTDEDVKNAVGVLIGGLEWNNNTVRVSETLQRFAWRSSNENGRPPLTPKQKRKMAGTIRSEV

Chain of Beta-galactosidase (Q8VNN2 whole entry): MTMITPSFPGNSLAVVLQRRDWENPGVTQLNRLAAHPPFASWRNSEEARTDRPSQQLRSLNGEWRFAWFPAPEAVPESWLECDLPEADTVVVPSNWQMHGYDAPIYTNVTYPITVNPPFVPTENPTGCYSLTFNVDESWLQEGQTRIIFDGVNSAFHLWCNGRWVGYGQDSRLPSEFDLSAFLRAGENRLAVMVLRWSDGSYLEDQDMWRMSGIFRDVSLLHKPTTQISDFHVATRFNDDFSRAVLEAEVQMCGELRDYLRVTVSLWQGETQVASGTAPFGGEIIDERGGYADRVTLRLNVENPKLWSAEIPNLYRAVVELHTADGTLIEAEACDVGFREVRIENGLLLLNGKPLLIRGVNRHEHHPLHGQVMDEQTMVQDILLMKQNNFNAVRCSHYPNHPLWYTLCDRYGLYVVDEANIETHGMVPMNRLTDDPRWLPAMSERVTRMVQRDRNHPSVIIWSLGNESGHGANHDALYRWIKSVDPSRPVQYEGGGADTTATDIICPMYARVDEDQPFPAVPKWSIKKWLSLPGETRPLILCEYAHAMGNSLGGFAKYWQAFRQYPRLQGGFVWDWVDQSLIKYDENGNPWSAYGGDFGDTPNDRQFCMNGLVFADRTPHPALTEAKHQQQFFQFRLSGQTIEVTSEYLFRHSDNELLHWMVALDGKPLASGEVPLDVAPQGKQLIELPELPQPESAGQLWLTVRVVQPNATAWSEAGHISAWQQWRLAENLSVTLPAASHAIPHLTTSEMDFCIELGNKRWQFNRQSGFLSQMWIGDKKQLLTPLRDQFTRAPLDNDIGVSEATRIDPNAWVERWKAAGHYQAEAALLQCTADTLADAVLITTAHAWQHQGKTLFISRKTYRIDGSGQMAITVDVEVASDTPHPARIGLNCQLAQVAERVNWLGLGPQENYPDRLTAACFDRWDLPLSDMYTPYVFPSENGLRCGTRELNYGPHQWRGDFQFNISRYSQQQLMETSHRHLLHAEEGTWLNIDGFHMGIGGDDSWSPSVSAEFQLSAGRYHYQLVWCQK

**Q.** Which EC50 [1] does the source give for CCC1CCCCN1S(=O)(=O)c1ccc(NC(=O)c2nc(S(C)(=O)=O)ncc2Cl)cc1 (stereo unspecified) here?
**A.** Its EC50 is 11.2 µM (active).

**Q.** And the EC50 [2]?
**A.** Its EC50 is > 40 µM (inactive).

**Q.** What about the IC50 [3] of the same molecule?
**A.** The IC50 was 44.8 µM (active).

**Q.** What about the AC50 [4] of the same molecule?
**A.** Its AC50 is 0.341 µM (active).

**Q.** What about the AC50 [5] of the same molecule?
**A.** The AC50 was 17 µM (active).

**Q.** What about the AC50 [6] of the same molecule?
**A.** Its AC50 is 2.46 µM (active).

**Q.** And the IC50 [7]?
**A.** The IC50 was > 64.6 µM (inactive).

**Q.** What about the AC50 [8] of the same molecule?
**A.** The AC50 was 5.67 µM (active).

**Q.** Which EC50 [9] does the source give for CCCC[n+]1ccn(C2=C([N-]S(=O)(=O)c3ccc(Cl)cc3)C(=O)c3ccccc3C2=O)c1 here?
**A.** The EC50 was 85.9 µM (inconclusive).

**Q.** For CC(=O)c1cccc2c1N=C(c1[nH]c3ccccc3c1O)C2=O, which CC50 [10] is on record?
**A.** Its CC50 is > 40 µM (active).

**Q.** What about the IC50 [11] of the same molecule?
**A.** Its IC50 is 13.9 µM (active).
